Among the data in ChEMBL document CHEMBL1177826, “Synthesis of isosteric selenium analog of the PPARbeta/delta agonist GW501516 and comparison of biological activity” (Bioorg Med Chem Lett, 2010) are Activity values, retold here.

The source made the active and inactive calls. No cut-off for these calls is given here.

Test [1] deals with T1, PPAR delta/gamma (Homo sapiens) (UniProt P37231+Q03181). Put plainly: Activation of […] in human HaCaT cells assessed as induction of ANGPTL4 expression by PCR. Format: cell-based.
T1 sequence (P37231 whole entry, looked up): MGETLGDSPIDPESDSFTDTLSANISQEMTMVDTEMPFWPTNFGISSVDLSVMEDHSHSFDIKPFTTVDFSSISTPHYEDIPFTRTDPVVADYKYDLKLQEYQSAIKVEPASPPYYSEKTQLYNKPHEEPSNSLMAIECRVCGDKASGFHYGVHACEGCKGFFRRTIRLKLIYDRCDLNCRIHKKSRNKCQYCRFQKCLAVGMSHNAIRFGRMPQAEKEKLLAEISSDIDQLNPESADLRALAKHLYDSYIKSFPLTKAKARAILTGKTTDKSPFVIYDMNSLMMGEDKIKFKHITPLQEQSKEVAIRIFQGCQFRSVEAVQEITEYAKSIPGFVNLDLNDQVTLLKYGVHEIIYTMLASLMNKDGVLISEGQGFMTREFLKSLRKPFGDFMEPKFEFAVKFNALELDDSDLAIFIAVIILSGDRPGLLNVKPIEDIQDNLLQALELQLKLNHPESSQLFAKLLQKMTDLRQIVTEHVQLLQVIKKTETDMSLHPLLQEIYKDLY
T1 sequence (Q03181 whole entry, looked up): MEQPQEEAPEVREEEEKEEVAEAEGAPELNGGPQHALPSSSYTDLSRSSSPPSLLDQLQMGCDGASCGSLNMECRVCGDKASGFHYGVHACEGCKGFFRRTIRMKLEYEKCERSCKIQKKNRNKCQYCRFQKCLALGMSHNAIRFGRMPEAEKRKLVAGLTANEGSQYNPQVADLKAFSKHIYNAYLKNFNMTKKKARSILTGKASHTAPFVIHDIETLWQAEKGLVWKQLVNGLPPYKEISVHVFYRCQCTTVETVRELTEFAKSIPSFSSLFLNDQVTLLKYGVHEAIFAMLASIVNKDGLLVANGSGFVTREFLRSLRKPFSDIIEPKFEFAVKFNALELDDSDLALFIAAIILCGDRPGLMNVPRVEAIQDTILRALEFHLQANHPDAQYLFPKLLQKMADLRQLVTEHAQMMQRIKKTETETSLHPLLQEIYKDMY
Test [2] addresses T1, PPAR delta/gamma (Homo sapiens). Put plainly: Activation of […] in human HaCaT cells assessed as inhibition of cellular proliferation at 10 uM after 72 hrs. The format is cell-based.

In the case of `Cc1cc([Se]Cc2sc(-c3ccc(C(F)(F)F)cc3)nc2C)ccc1OCC(=O)O`, the outcome in test [1] and in test [2] was Active.
